The text below walks through data of patent US10131928B2, “Inositol biotransformation” (University Court of the University of St Andrews, priority 2013, dated 2018).

Common to all, as to format: biochemical
Test [1] addresses T1, TbINO1 (Trypanosoma brucei brucei, UniProt Q5QQ46).
T1 construct: Hexa-His (N); made in house; host or cells: E. coli BL21 Rosetta (DE3)
T1 sequence (Q5QQ46 1-528): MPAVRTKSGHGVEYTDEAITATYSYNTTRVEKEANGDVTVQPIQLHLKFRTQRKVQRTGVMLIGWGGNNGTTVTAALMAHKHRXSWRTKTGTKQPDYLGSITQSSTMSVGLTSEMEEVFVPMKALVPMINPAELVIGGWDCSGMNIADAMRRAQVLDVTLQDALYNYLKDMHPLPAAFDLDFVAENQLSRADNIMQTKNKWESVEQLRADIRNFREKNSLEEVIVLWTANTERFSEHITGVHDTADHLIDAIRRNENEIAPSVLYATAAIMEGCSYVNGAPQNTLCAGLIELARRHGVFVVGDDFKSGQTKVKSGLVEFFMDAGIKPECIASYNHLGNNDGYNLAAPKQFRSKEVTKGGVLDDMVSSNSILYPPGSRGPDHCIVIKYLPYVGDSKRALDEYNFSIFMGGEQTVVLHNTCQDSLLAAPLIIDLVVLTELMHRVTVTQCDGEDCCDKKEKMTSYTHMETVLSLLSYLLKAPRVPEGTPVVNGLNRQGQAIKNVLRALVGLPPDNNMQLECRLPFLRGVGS
The test can be described thus: biochemical. The procedure: (§1) An alternative reaction mixture consisted of 2 mM Tris-Ac (pH 9), 2 mM glucose-6-phosphate, 1 mM NAD^+, 1 mM DTT, 2 mM NH4Ac and 5 μg protein in a final volume of 20 μL. The reaction was incubated at 37° C. for 1 hr and terminated by heating at 100° C. for 10 min and the addition of 80 μL of 10 mM NaOH. For inhibitor studies the standard reaction mixture was prepared without glucose-6-phosphate, the inhibitor was added to the reaction and incubated on ice for 10 min prior to the addition of glucose-6-phosphate and subsequent incubation of 37° C. for 1 hr.
(§2) After quenching the reaction mix was analysed by high performance anion-exchange chromatography using a Dionex HPLC system with a CarboPacPA-1 column and PA-1 guard column (Dionex). The column was pre-equilibrated with 95% Buffer A (1 mM sodium hydroxide) and 5% Buffer B (1M sodium acetate+1 mM sodium hydroxide). An aliquot (20 μL) of the quenched reaction mixture was injected onto the column and eluted a linear gradient of 5-40% […], detected with pulsed amperometric detection and analysed with Chromeleon software (Dionex).
(§3) The TbINO1 was pre-incubated with potential inhibitor prior to the addition of glucose-6-phosphate or fructose-6-phosphate and quantification of inositol-3-phosphate and fructose-6-phosphate by HPLC.

Test [2] deals with T1, TbINO1. The test is described as follows: biochemical. The procedure: as §1, §2, §3
This is another data set of the same source.

The target in test [3] is T1, TbINO1. The test is described as follows: Compounds tested as substrates for TbINO1 in the standard reaction mixture, products separated by HPLC. The settings on record: tested as substrate, longer time periods; intermediate conversion to glucose-6-phosphate. The procedure:
as §1
as §2, with “software (Dionex). The substrate glucose-6-phosphate and the product inositol-3-phosphate are clearly separated by this method. […]” for “software (Dionex).”

Setting [4] is: Table 2, inhibitor pre-incubated with recombinant TbINO1, fructose-6-phosphate as substrate, read-out: IC50 PGI activity.
Where [5] appears, read: Table 2, inhibitor pre-incubated with recombinant TbINO1, glucose-6-phosphate as substrate, read-out: IC50 INO1 activity.
The mark [6] stands for this setting: Table 3, metabolic intermediates, pre-incubated, fructose-6-phosphate as substrate, read-out: IC50 PGI activity.
Setting [7] is: Table 3, metabolic intermediates, pre-incubated, glucose-6-phosphate as substrate, read-out: IC50 INO1 activity.

Where two headings read alike, the source gives them in different places.

Usually IC50 stands for the midpoint of a concentration-inhibition curve. As to `CC(=O)N[C@H]1C(OP(=O)(O)O)O[C@H](CO)[C@@H](O)[C@@H]1O` (some centres unmarked) [Acetylglucosamine-1-P, acetylglucosamine-1-phosphate], on TbINO1 [1], the “inhibition of PGI (glucose-6-phosphate isomerase) activity” value (“inhibition of PGI” below) is reported as “No inhibition”. Further, the IC50 on TbINO1 [1] (setting [4]) and at TbINO1 [2] (setting [5]) was greater than 10 mM in each case. In addition, the “inhibition of INO1 activity” value against TbINO1 [2] was “No inhibition”.

In the case of `O=C[C@H](O)COP(=O)(O)O` [GAP], the “inhibition of PGI” value on TbINO1 [1] was “Inhibition was observed”. Besides, the IC50 at TbINO1 [1] (setting [6]) and on TbINO1 [2] (setting [7]) was 2 mM throughout. For the same compound, the “inhibition of INO1 activity” value at TbINO1 [2] was “Inhibition was observed”.

As to `O=CC(O)CO` (centres unmarked) [Glyceraldehyde, glyceraldehyde], at TbINO1 [1], the IC50 was greater than 10 mM and the “inhibition of PGI” value is reported as “no inhibition”. For the same compound, on TbINO1 [2], the IC50 was greater than 10 mM and the “inhibition of INO1 activity” value is reported as “no inhibition”.

As for `O=C[C@H](O)[C@@H](O)[C@@H](O)[C@H](O)COP(=O)(O)O` [Galactose-6-P, galactose-6-phosphate], at TbINO1 [1], the IC50 was greater than 10 mM and the “inhibition of PGI” value is listed as “No inhibition”. In addition, on TbINO1 [2], the IC50 is greater than 10 mM and the “inhibition of INO1 activity” value is reported as “No inhibition”.

For the compound `COC1O[C@H](COP(=O)(O)O)[C@@H](O)[C@H](O)[C@H]1O` (some centres unmarked) [1-OMe-Glucose-6-P, glucose-1-O-methyl-6-phospahte], the IC50 at TbINO1 [1] (setting [4]) and on TbINO1 [2] (setting [5]) was 2.5 mM in each case.

With `CC(=O)C(=O)O` [Pyruvate, pyruvate], the IC50 against TbINO1 [1] and against TbINO1 [2] was greater than 10 mM throughout.

`O=P(O)(O)OC[C@H]1OC(O)[C@H](O)[C@@H](F)[C@@H]1O` (some centres unmarked) [3-F-Glucose-6-P, 3-fluoro-glucose-6-phospahte]: the IC50 on TbINO1 [1] and on TbINO1 [2] was 2.5 mM in each case.

As to `O=C(CO)[C@@H](O)[C@H](O)[C@H](O)COP(=O)(O)O` [fructose-6-phosphate], the “conversion to inositol-3-phosphate by TbINO1” value on TbINO1 [3] is “quantitative conversion”.

As to `O=P(O)(O)OC[C@H]1OC(O)[C@H](O)[C@@H](O)[C@@H]1F` (some centres unmarked) [4-F-Glucose-6-P, 4-fluoro-glucose-6-phospahte], the concentration for half-maximal inhibition (IC50) against TbINO1 [1] and on TbINO1 [2] was greater than 10 mM throughout.

Consider `O=C(O)CC(=O)C(=O)O` [OAA], for which the “inhibition of PGI” value at TbINO1 [1] is “Inhibition was observed”. Moreover, the figures for the IC50 at TbINO1 [1] (setting [6]) and at TbINO1 [2] (setting [7]) were 2 mM and 1.5 mM, respectively. For the same compound, the “inhibition of INO1 activity” value at TbINO1 [2] is reported as “Inhibition was observed”.

For the compound `O=P(O)(O)OC[C@H]1OC(O)C[C@@H](O)[C@@H]1O` (some centres unmarked) [2-Deoxyglucose-6-P], the IC50 against TbINO1 [1] and against TbINO1 [2] was 4 mM throughout.

In the case of `O=C[C@@H](O)[C@@H](O)[C@H](O)[C@H](O)COP(=O)(O)O` [Mannose-6-P, mannose-6-phosphate], at TbINO1 [1], the IC50 was greater than 10 mM and the “inhibition of PGI” value is “No inhibition”. On TbINO1 [2], the IC50 is greater than 10 mM and the “inhibition of INO1 activity” value is given as “No inhibition”.

As for `CC(=O)N[C@H]1C(O)O[C@H](COP(=O)(O)O)[C@@H](O)[C@@H]1O` (some centres unmarked) [Acetylglucosamine-6-P, acetylglucosamine-6-phosphate], the “inhibition of PGI” value against TbINO1 [1] is given as “No inhibition”. Further, the IC50 at TbINO1 [1] (setting [4]) and at TbINO1 [2] (setting [5]) was greater than 10 mM each time. For the same compound, the “inhibition of INO1 activity” value against TbINO1 [2] is reported as “No inhibition”.

Take `O=C(CO)COP(=O)(O)O` [DHAP]: the “inhibition of PGI” value at TbINO1 [1] is on record as “Inhibition was observed”. In addition, the IC50 on TbINO1 [1] (setting [6]) and on TbINO1 [2] (setting [7]) was 3 mM each time. For the same compound, at TbINO1 [2], the “inhibition of INO1 activity” value is “Inhibition was observed”.

Consider `C=C(OP(=O)(O)O)C(=O)O` [PEP], for which, at TbINO1 [1], the “inhibition of PGI” value is listed as “No inhibition”. Also, the IC50 on TbINO1 [1] (setting [6]) and on TbINO1 [2] (setting [7]) was greater than 10 mM each time. In addition, the “inhibition of INO1 activity” value against TbINO1 [2] was “No inhibition”.

As for `O=P(O)(O)OCC(O)CO` (centres unmarked) [Glycerophosphate], the “inhibition of PGI” value against TbINO1 [1] is “No inhibition”. Moreover, the IC50 at TbINO1 [1] (setting [4]) and on TbINO1 [2] (setting [5]) was greater than 10 mM throughout. On TbINO1 [2], the “inhibition of INO1 activity” value is listed as “No inhibition”.

On to `CCCC(CCC)C(=O)O` [VPA], for which the “inhibition of PGI” value against TbINO1 [1] is “No inhibition”. For the same compound, the 50% inhibitory concentration (IC50) at TbINO1 [1] (setting [6]) and on TbINO1 [2] (setting [7]) was greater than 10 mM throughout. In addition, the “inhibition of INO1 activity” value against TbINO1 [2] was “No inhibition”.

Turning to `O=P(O)(O)O[C@H]1O[C@H](CO)[C@@H](O)[C@H](O)[C@H]1O` [Glucose-1-P, glucose-1-phosphate], the “inhibition of PGI” value against TbINO1 [1] is reported as “No inhibition”. The IC50 on TbINO1 [1] (setting [4]) and at TbINO1 [2] (setting [5]) was greater than 10 mM in each case. On TbINO1 [2], the “inhibition of INO1 activity” value is given as “No inhibition”.

Take `O=CC[C@@H](O)[C@H](O)[C@H](O)CO` [2-Deoxyglucose]: the IC50 at TbINO1 [1] and against TbINO1 [2] was greater than 10 mM in each case.

As for `O=P(O)(O)OC[C@H]1OC(O)[C@H](F)[C@@H](O)[C@@H]1O` (some centres unmarked) [2-F-Glucose-6-P, 2-fluoro-glucose-6-phospahte], the IC50 at TbINO1 [1] (setting [4]) and at TbINO1 [2] (setting [5]) was 1 mM each time.

Regarding `O=C(CO)CO` [DHA], at TbINO1 [1], the “inhibition of PGI” value is “no inhibition”. Also, the IC50 on TbINO1 [1] (setting [6]) and on TbINO1 [2] (setting [7]) was greater than 10 mM throughout. At TbINO1 [2], the “inhibition of INO1 activity” value is recorded as “no inhibition”.

As to `O=C(O)[C@H](O)[C@@H](O)[C@H](O)[C@H](O)COP(=O)(O)O` [6-phosphogluconic acid], at TbINO1 [1], the IC50 was greater than 10 mM and the “inhibition of PGI” value is recorded as “No inhibition”. Further, at TbINO1 [2], the concentration for half-maximal inhibition (IC50) is greater than 10 mM and the “inhibition of INO1 activity” value is “No inhibition”.
